Molecular target: Cdk9/cyclinT1 (Homo sapiens, UniProt P50750)
Assay: Cdk9/cyclinT1 IMAP Protocol (fluorescence polarization kinase assay)
Conditions: ATP 6 uM
[1] = Cdk9_cyclinT1_IC50, generated using one of the two Cdk9/cyclinT1 assays (IMAP or Alpha Screen), not specified per value
[2] = Cdk9_cyclinT1_IC50, Table V, generated using one of the two Cdk9/cyclinT1 assays (IMAP or Alpha Screen), not stated which

Sequence of Cdk9/cyclinT1 (P50750 whole entry): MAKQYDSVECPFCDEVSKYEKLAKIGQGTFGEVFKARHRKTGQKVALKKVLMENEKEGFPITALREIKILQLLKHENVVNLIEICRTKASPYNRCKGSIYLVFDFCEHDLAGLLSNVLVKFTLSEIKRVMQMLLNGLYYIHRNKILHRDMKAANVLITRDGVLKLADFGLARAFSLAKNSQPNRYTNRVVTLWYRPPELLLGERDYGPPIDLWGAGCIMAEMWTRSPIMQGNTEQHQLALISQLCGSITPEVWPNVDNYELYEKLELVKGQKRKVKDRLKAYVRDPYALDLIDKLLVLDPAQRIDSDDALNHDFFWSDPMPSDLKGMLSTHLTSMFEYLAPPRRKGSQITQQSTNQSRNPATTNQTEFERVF
Sequence of Cdk9/cyclinT1 (O60563 whole entry partner): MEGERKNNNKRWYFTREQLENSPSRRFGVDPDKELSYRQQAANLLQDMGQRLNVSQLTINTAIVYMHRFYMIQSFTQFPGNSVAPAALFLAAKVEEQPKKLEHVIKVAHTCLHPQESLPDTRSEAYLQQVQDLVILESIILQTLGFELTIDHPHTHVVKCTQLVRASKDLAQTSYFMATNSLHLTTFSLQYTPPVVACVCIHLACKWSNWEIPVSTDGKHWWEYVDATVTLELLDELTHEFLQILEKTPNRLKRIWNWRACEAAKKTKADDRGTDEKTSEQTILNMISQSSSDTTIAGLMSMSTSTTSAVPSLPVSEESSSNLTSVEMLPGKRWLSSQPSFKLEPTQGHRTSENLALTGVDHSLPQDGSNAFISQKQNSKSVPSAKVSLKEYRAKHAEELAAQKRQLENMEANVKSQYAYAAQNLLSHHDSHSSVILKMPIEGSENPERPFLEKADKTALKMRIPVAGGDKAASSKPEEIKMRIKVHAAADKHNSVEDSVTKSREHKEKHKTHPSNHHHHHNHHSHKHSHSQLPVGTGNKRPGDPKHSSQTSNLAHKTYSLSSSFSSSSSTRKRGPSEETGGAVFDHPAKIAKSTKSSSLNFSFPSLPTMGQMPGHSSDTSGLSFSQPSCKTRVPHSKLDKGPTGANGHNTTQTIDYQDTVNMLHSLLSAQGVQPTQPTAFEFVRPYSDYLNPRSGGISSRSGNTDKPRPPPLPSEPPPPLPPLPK

IC50 [1] [nM]	IC50 [2] [nM]	SMILES
6	–	O=C(Nc1cc(-c2cc(NCC3CCOCC3)cnc2Cl)c(Cl)cn1)C1CNCCOC1 (centres unmarked) [Example 316, [l,4]Oxazepane-6-carboxylic acid {2,5′-dichloro-5-[(tetrahydro-pyran-4-ylmethyl)-amino]-[3,4′]bipyridinyl-2′-yl}-amide]
–	< 8	O=C(Nc1cc(-c2nc(NCC3CCOCC3)ccc2Cl)c(Cl)cn1)[C@@H]1CCCNC1 [Example 75]
–	1	CC1(C)CO[C@H](CNc2nc(-c3cc(NC(=O)[C@@H]4CCCNC4)ncc3Cl)ccc2F)CO1 (single isomer, unassigned) [Example 265]
–	396	O=C(Nc1cc(-c2cccc(NCC3CCOCC3)n2)c(Cl)cn1)[C@@H]1CCCO1 [Example 67, (S)-Tetrahydro-furan-2-carboxylic acid {5′-chloro-6-[(tetrahydro-pyran-4-ylmethyl)-amino]-[2,4′]bipyridinyl-2′-yl}-amide]
–	5	O=C(Nc1cc(-c2ccc(F)c(NCC3CCOCC3)n2)c(Cl)cn1)[C@H]1CNCCO1 [Example 205, (R)-Morpholine-2-carboxylic acid {5′-chloro-5-fluoro-6-[(tetrahydro-pyran-4-ylmethyl)-amino]-[2,4′]bipyridinyl-2′-yl}-amide]
–	26	C[C@@H](O)CNc1cccc(-c2cc(NC(=O)[C@@H]3CCCNC3)ncc2Cl)n1 [Example 29, (R)-Piperidine-3-carboxylic acid [5′-chloro-6-((R)-2-hydroxy-propylamino)-[2,4′]bipyridinyl-2′-yl]-amide]
–	2	COC[C@@H]1CC[C@@H](C(=O)Nc2cc(-c3cccc(NCC4CCOCC4)n3)c(Cl)cn2)CN1 (single isomer, unassigned) [Example 235]
–	631	CC(=O)N1CCC[C@@H](C(=O)Nc2cc(-c3cccc(NCC4CCOCC4)n3)c(Cl)cn2)C1 [Example 82, (R)-1-acetyl-piperidine-3-carboxylic acid {5′-chloro-6-[(tetrahydro-pyran-4-ylmethyl)-amino]-[2,4′]bipyridinyl-2′-yl}-amide]
–	5	O=C(Nc1cc(-c2cccc(NCC3CCOCC3)n2)c(Cl)cn1)[C@H]1CNC[C@@H](F)C1 [Example 177, (3R,5S)-5-Fluoro-piperidine-3-carboxylic acid {5′-chloro-6-[(tetrahydro-pyran-4-ylmethyl)-amino]-[2,4′]bipyridinyl-2′-yl}-amide]
–	< 8	O=C(Nc1cc(-c2cccc(NCc3cncc(F)c3)n2)c(Cl)cn1)[C@@H]1CCCNC1 [Example 41, (R)-Piperidine-3-carboxylic acid {5′-chloro-6-[(5-fluoro-pyridin-3-ylmethyl)-amino]-[2,4′]bipyridinyl-2′-yl}-amide]
–	1	CC1(C)C[C@H](CNc2nc(-c3cc(NC(=O)[C@@H]4CCCNC4)ncc3Cl)ccc2F)CCO1 (single isomer, unassigned) [Example 215]
–	1	CC[C@@H]1CC[C@@H](C(=O)Nc2cc(-c3ccc(F)c(NCC4CCOCC4)n3)c(Cl)cn2)CN1 (racemic) [Example 250, (3R,6R)-/(3S,6S)-6-Ethyl-piperidine-3-carboxylic acid {5′-chloro-5-fluoro-6-[(tetrahydro-pyran-4-ylmethyl)-amino]-[2,4′]bipyridinyl-2′-yl}-amide]
–	1	O=C(Nc1cc(-c2nc(NCC3CCOCC3)ccc2F)c(Cl)cn1)C1CNCCOC1 (centres unmarked) [Example 204, [1,4]Oxazepane-6-carboxylic acid {5′-chloro-3-fluoro-6-[(tetrahydro-pyran-4-ylmethyl)-amino]-[2,4′]bipyridinyl-2′-yl}-amide]
–	6	COC[C@H]1C[C@@H](C(=O)Nc2cc(-c3cccc(NCC4(C)CCOCC4)n3)c(Cl)cn2)CN1 [Example 246, (3R,5R)-5-Methoxymethyl-pyrrolidine-3-carboxylic acid {5′-chloro-6-[(4-methyl-tetrahydro-pyran-4-ylmethyl)-amino]-[2,4′]bipyridinyl-2′-yl}-amide]
–	37	CNCCC(=O)Nc1cc(-c2cccc(NCC3CCOCC3)n2)c(Cl)cn1 [Example 64, N-{5′-Chloro-6-[(tetrahydro-pyran-4-ylmethyl)-amino]-[2,4′]bipyridinyl-2′-yl}-3-methylamino-propionamide]
–	< 8	CS(=O)(=O)N1CCC[C@H](C(=O)Nc2cc(-c3nc(NCC4CCOCC4)ccc3Cl)c(Cl)cn2)C1 [Example 108, (S)-1-Methanesulfonyl-piperidine-3-carboxylic acid {3,5′-dichloro-6-[(tetrahydro-pyran-4-ylmethyl)-amino]-[2,4′]bipyridinyl-2′-yl}-amide]
–	< 8	O=C(Nc1cc(-c2cccc(NCC3CCCOC3)n2)c(Cl)cn1)[C@@H]1CCCNC1 (stereo partly drawn) [Example 18, (R)-Piperidine-3-carboxylic acid {5′-chloro-6-[(tetrahydro-pyran-3-ylmethyl)-amino]-[2,4′]bipyridinyl-2′-yl}-amide]

IC50 [1] [nM]	IC50 [2] [nM]	SMILES
–	1	CC1(C)CO[C@@H](CNc2nc(-c3cc(NC(=O)[C@@H]4CCCNC4)ncc3Cl)ccc2F)CO1 (single isomer, unassigned) [Example 264]
–	9	CC(C)O[C@H]1CNC[C@@H]1C(=O)Nc1cc(-c2cccc(NCC3(C)CCOCC3)n2)c(Cl)cn1 [Example 249, (3S,4R)-4-Isopropoxy-pyrrolidine-3-carboxylic acid {5′-chloro-6-[(4-methyl-tetrahydro-pyran-4-ylmethyl)-amino]-[2,4′]bipyridinyl-2′-yl}-amide]
–	2	CC1(C)CC(CNc2cccc(-c3cc(NC(=O)C4CNCCOC4)ncc3Cl)n2)CCO1 (centres unmarked) [Example 202, [1,4]Oxazepane-6-carboxylic acid {5′-chloro-6-[(2,2-dimethyl-tetrahydro-pyran-4-ylmethyl)-amino]-[2,4′]bipyridinyl-2′-yl}-amide]
46	–	COc1ccncc1-c1cc(NC(=O)[C@@H]2CCCNC2)ncc1Cl [Example 306, (R)-Piperidine-3-carboxylic acid (5′-chloro-4-methoxy-[3,4′]bipyridinyl-2′-yl)-amide]
–	< 8	O=C(Nc1cc(-c2ccc(Cl)c(NCC3CCOCC3)n2)c(Cl)cn1)[C@@H]1CCCNC1 [Example 74, (R)-Piperidine-3-carboxylic acid {5,5′-dichloro-6-[(tetrahydro-pyran-4-ylmethyl)-amino]-[2,4′]bipyridinyl-2′-yl}-amide]
–	10	O=C(Nc1cc(-c2cccc(NCc3ccccc3F)n2)c(Cl)cn1)[C@@H]1CCCNC1 [Example 51, (R)-Piperidine-3-carboxylic acid [5′-chloro-6-(2-fluoro-benzylamino)-[2,4′]bipyridinyl-2′-yl]-amide]
–	3	CC1(C)COC[C@H](CNc2cccc(-c3cc(NC(=O)[C@@H]4CCCNC4)ncc3Cl)n2)O1 (single isomer, unassigned) [Example 234]
–	1	C[C@@H]1CNC[C@H](C(=O)Nc2cc(-c3cccc(NCC4CCOCC4)n3)c(Cl)cn2)C1 (single isomer, unassigned) [Example 128]
–	1	C[C@@H]1CC(CNc2cccc(-c3cc(NC(=O)[C@@H]4CCCNC4)ncc3Cl)n2)C[C@H](C)O1 (stereo partly drawn) [Example 159, (R)-Piperidine-3-carboxylic acid {5′-chloro-6-[((2R,6S)-2,6-dimethyl-tetrahydro-pyran-4-ylmethyl)-amino]-[2,4′]bipyridinyl-2′-yl}-amide]
–	2	CC1(C)CCC(C(=O)Nc2cc(-c3cccc(NCC4CCOCC4)n3)ccn2)CN1 (centres unmarked) [Example 195, 6,6-Dimethyl-N-(6-(((tetrahydro-2H-pyran-4-yl)methyl)amino)-2,4′-bipyridin-2′-yl)piperidine-3-carboxamide]
–	1	CC1(C)COC(CNc2cccc(-c3cc(NC(=O)[C@@H]4CCCNC4)ncc3Cl)n2)CO1 (stereo partly drawn) [Example 218, (R)-Piperidine-3-carboxylic acid {5′-chloro-6-[(5,5-dimethyl-[1,4]dioxan-2-ylmethyl)-amino]-[2,4′]bipyridinyl-2′-yl}-amide]
–	< 8	CS(=O)(=O)N[C@@H]1CC[C@H](C(=O)Nc2cc(-c3nc(NCC4CCOCC4)ccc3Cl)c(Cl)cn2)C1 [Example 109, (1S,3R)-3-Methanesulfonylamino-cyclopentanecarboxylic acid {3,5′-dichloro-6-[(tetrahydro-pyran-4-ylmethyl)-amino]-[2,4′]bipyridinyl-2′-yl}-amide]
–	< 8	CS(=O)(=O)N1CCC[C@H](C(=O)Nc2cc(-c3cccc(NCC4CCOCC4)n3)c(Cl)cn2)C1 [Example 91, (S)-1-Methanesulfonyl-piperidine-3-carboxylic acid {5′-chloro-6-[(tetrahydro-pyran-4-ylmethyl)-amino]-[2,4′]bipyridinyl-2′-yl}-amide]
–	21	COCCCNc1cccc(-c2cc(NC(=O)[C@@H]3CCCNC3)ncc2Cl)n1 [Example 28, (R)-Piperidine-3-carboxylic acid [5′-chloro-6-(3-methoxy-propylamino)-[2,4′]bipyridinyl-2′-yl]-amide]
–	1	COC(=O)N1CCC[C@H](C(=O)Nc2cc(-c3nc(NC[C@@H]4CCOC(C)(C)C4)ccc3Cl)c(Cl)cn2)C1 (single isomer, unassigned) [Example 174]
–	1	CC1(C)CC(CNc2cccc(-c3cc(NC(=O)[C@@H]4CCNC4)ncc3Cl)n2)CCO1 (stereo partly drawn) [Example 188, (R)-Pyrrolidine-3-carboxylic acid {5′-chloro-6-[(2,2-dimethyl-tetrahydro-pyran-4-ylmethyl)-amino]-[2,4′]bipyridinyl-2′-yl}-amide]
–	1	CC1(C)C[C@@H](CNc2nc(-c3cc(NC(=O)[C@@H]4CCCNC4)ncc3Cl)ccc2F)CCO1 (single isomer, unassigned) [Example 216]

SMILES	IC50 [1] [nM]	IC50 [2] [nM]
CCS(=O)(=O)N1CCC[C@H](C(=O)Nc2cc(-c3cccc(NCC4CCOCC4)n3)c(Cl)cn2)C1 [Example 92, (S)-1-Ethanesulfonyl-piperidine-3-carboxylic acid {5′-chloro-6-[(tetrahydro-pyran-4-ylmethyl)-amino]-[2,4′]bipyridinyl-2′-yl}-amide]	–	< 8
